# According to patent publication US8071592B2 (priority 2006, dated 2011):
# Where a name gives a salt, the structure may show the parent alone.
# System: Gram-positive organisms (Staphylococcus aureus, Streptococcus pneumoniae, Streptococcus pyogenes, Enterococcus faecalis, Enterococcus faecium) and …
# Assay: not given
# Format: cell-based
# Settings: against a strain of at least one of the organisms listed; tested in at least one exemplified salt form
row,SMILES,MIC [µg/mL]
1,CC(C)(O)c1c(F)cnc2ccc(=O)n(CCN3CCC(NCc4ccc5c(n4)NC(=O)CO5)CC3)c12 [Example 183],16
2,COc1ccc2ncc(=O)n(CCN3C[C@H](CNCc4ccn5ccc(=O)nc5c4)[C@H](O)C3)c2n1 [Example 272],> 16

# System: Mycobacterium tuberculosis H37Rv
# Assay: Mycobacterium tuberculosis H37Rv Inhibition Assay (resazurin, MIC)
# Format: cell-based
# Settings: ATCC 25618 / H37Rv, 144 h, H37Rv strain (ATCC25618), Middlebrook 7H9+ADC medium, six days at 37° C., resazurin fluorescence after 48 hours, read-out: MIC value
row,SMILES,MIC [µg/mL]
1,O=C1CSc2ccc(CNC[C@@H]3C[C@H](O)CN(CCn4c(=O)ccc5ccc(F)cc54)C3)nc2N1 (racemic) [Example 158],≤ 4
2,"O=c1cnc2ccc(F)cc2n1CCN1CC[C@H](NCc2cc3c(nn2)OCCO3)[C@H](O)C1 (single isomer, unassigned) [Example 193]",≤ 4
3,"Cl.O=c1ccc2ccc(F)cc2n1CCN1CCC(NCc2cc3c(cn2)OCCO3)CC1 [Example 2, 1-(2-{4-[(2,3-dihydro[1,4]dioxino[2,3-c]pyridin-7-ylmethyl)amino]-1-piperidinyl}ethyl)-7-fluoro-2(1H)-quinolinone Hydrochloride]",≤ 4
4,"O=c1ccc2ncc(F)cc2n1CCN1CCC(NCc2cc3c(cn2)OCCO3)CC1 [Example 7, 1-(2-{4-[(2,3-Dihydro[1,4]dioxino[2,3-c]pyridin-7-ylmethyl)amino]-1-piperidinyl}ethyl)-7-fluoro-1,5-naphthyridin-2(1H)-one Hydrochloride]",≤ 4
5,"COc1ccc2ccc(=O)n(CCN3CCC(NCc4cc5c(nn4)OCCO5)CC3)c2n1 [Example 17, 1-(2-{4-[(6,7-dihydro[1,4]dioxino[2,3-c]pyridazin-3-ylmethyl)amino]-1-piperidinyl}ethyl)-7-(methyloxy)-1,8-naphthyridin-2(1H)-one Dihydrochloride]",≤ 4
6,"O=c1cnc2ccc(F)cc2n1CCN1CCC(NCc2cc3c(cn2)OCCO3)CC1 [Example 20, 1-(2-{4-[(2,3-dihydro[1,4]dioxino[2,3-c]pyridin-7-ylmethyl)amino]-1-piperidinyl}ethyl)-7-fluoro-2(1H)-quinoxalinone Dihydrochloride]",≤ 4
7,"COc1ccc2ncc(=O)n(CCN3CCC(NCc4cc5c(cn4)OCCO5)CC3)c2n1 [Example 37, 4-(2-{4-[(2,3-dihydro[1,4]dioxino[2,3-c]pyridin-7-ylmethyl)amino]-1-piperidinyl}ethyl)-6-(methyloxy)pyrido[2,3-b]pyrazin-3(4H)-one Dihydrochloride]",≤ 4
8,"O=c1cnc2ccc(F)cc2n1CCN1CCC(NCc2cc3c(cn2)OCC3)CC1 [Example 38, 1-(2-{4-[(2,3-dihydrofuro[2,3-c]pyridin-5-ylmethyl)amino]-1-piperidinyl}ethyl)-7-fluoro-2(1H)-quinoxalinone Dihydrochloride]",≤ 4
9,"COc1cnc2ncc(=O)n(CCN3CCC(NCc4cc5c(cn4)OCCO5)CC3)c2c1.O=CO.O=CO [Example 51B, 1-(2-{4-[(2,3-dihydro[1,4]dioxino[2,3-c]pyridin-7-ylmethyl)amino]-1-piperidinyl}ethyl)-7-(methyloxy)pyrido[2,3-b]pyrazin-2(1H)-one diformate]",≤ 4
10,O=c1cnc2c(F)cc(F)cc2n1CCN1CCC(NCc2cc3c(nn2)OCCO3)CC1 [Example 120],≤ 4
11,O=c1c(F)cc2ccc(F)cc2n1CCN1CCC(NCc2cc3c(cn2)OCCO3)CC1 [Example 180],≤ 4
12,COc1ccc2ncc(=O)n(CCN3C[C@H](CNCc4cc5c(cn4)OCCO5)[C@@H](O)C3)c2n1 [Example 225],≤ 4
13,COc1ccc2ncc(=O)n(CCN3C[C@H](CNCc4cc5c(cn4)OCCO5)[C@H](O)C3)c2c1 [Example 226],≤ 4
14,O=c1ccc2ncccc2n1CCN1CCC(NCc2cc3ccccc3o2)CC1 [Example 282],≤ 4
15,O=c1ccc2ccc(F)cc2n1CCN1CCC(NCc2nc3ccccc3s2)CC1 [Example 287],≤ 4
16,O=c1ccc2ccccc2n1CCN1CCC(NCc2cc3ccccc3o2)CC1 [Example 288],≤ 4
17,O=c1ccc2ccccc2n1CCN1CCC(NCc2cc3cc(Cl)ccc3s2)CC1 [Example 289],≤ 4
18,COc1ccc2ccc(=O)n(CCN3CCC(NCc4ccc5nnn(C)c5c4)CC3)c2c1 [Example 302],≤ 4

# Same assay, conditions: ATCC 25618 / H37Rv, 144 h, read-out: MIC value, H37Rv strain (ATCC25618), Middlebrook 7H9+ADC medium, six days at 37° C., resazurin fluorescence after 48 hours
row,SMILES,MIC [µg/mL]
1,"COc1ccc2ccc(=O)n(CCN3C[C@@H](CNCc4ccc5c(n4)NC(=O)CO5)[C@@H](O)C3)c2c1 [Example 53, 6-({[((3R,4R)-4-hydroxy-1-{2-[7-(methyloxy)-2-oxo-1(2H)-quinolinyl]ethyl}-3-pyrrolidinyl)methyl]amino}methyl)-2H-pyrido[3,2-b][1,4]oxazin-3(4H)-one dihydrochloride]",≤ 4
2,"O=c1ccc2c(F)cc3c(c2n1CCN1CCC(NCc2cc4c(cn2)OCCO4)CC1)OCCO3 [Example 57, 10-(2-{4-[(2,3-dihydro[1,4]dioxino[2,3-c]pyridin-7-ylmethyl)amino]-1-piperidinyl}ethyl)-6-fluoro-2,3-dihydro[1,4]dioxino[2,3-h]quinolin-9(10H)-one hydrochloride]",≤ 4
3,"COc1ccc2ccc(=O)n(CCN3C[C@H](CNCc4cc5c(cn4)OCCO5)[C@H](O)C3)c2c1 [Example 74, 1-[2-((3S,4S)-3-{[(2,3-dihydro[1,4]dioxino[2,3-c]pyridin-7-ylmethyl)amino]methyl}-4-hydroxy-1-pyrrolidinyl)ethyl]-7-(methyloxy)-2(1H)-quinolinone Hydrochloride]",≤ 4
4,"Cc1cc(=O)n(CCN2CCC(NCc3cc4c(cn3)OCCO4)CC2)c2cc(F)ccc12 [Example 131, 1-(2-{4-[(2,3-Dihydro[1,4]dioxino[2,3-c]pyridin-7-ylmethyl)amino]-1-piperidinyl}ethyl)-7-fluoro-4-methyl-2(1H)-quinolinone Dihydrochloride]",≤ 4
5,"O=c1ccc2ccc(F)cc2n1CCN1CC[C@@H](O)[C@@H](CNCc2cc3c(cn2)OCCO3)C1 [Example 138, 1-[2-((3S,4R)-3-{[(2,3-Dihydro[1,4]dioxino[2,3-c]pyridin-7-ylmethyl)amino]methyl}-4-hydroxy-1-piperidinyl)ethyl]-7-fluoro-2(1H)-quinolinone Dihydrochloride]",≤ 4

# Same assay, conditions: ATCC25618|H37RV, 144 h, H37Rv strain (ATCC25618), Middlebrook 7H9+ADC medium, six days at 37° C., resazurin fluorescence after 48 hours, read-out: MIC value
row,SMILES,MIC [µg/mL]
1,"O=c1ccc2ncc(F)cc2n1CCN1CCC(NCc2cc3c(nn2)OCCO3)CC1 [Example 9, Hydrochloride]",≤ 4
